According to ChEMBL document CHEMBL4342475, “Structure-Bioactivity Relationships of Lapatinib Derived Analogs against Schistosoma mansoni” (ACS Med Chem Lett, 2020):
Values after ≈ are worked out from the molar mass of the structure shown. Active and inactive are the calls of the source. The calls are words filed in the database; no cut-off is given here.

Legend:
[1] = Aqueous solubility of compound incubated for 24 hrs by LC-MS/MS analysis; format: physicochemical; details: buffer, 24 h
[2] = Cytotoxicity against human HepG2 cells assessed as reduction in cell viability 48 hrs by MTT assay; format: cell-based; details: read-out: TC50
Schistosoma mansoni [3] = experiment: Antiparasitic activity against Schistosoma mansoni infected in Hamster assessed as severity score at 10 uM incubated for 5 hrs; format: functional, organism-based
Schistosoma mansoni [4] = experiment: Antiparasitic activity against Schistosoma mansoni infected in Hamster assessed as severity score at 10 uM incubated for 1 hr; format: functional, organism-based
Schistosoma mansoni [5] = experiment: Antiparasitic activity against Schistosoma mansoni infected in Hamster assessed as severity score at 10 uM incubated for 48 hrs; format: functional, organism-based
[6] = Protein binding in human plasma at 1 uM by LC-MS/MS analysis; format: ADME, cell-free
[7] = Metabolic stability in human liver microsomes assessed as intrinsic clearance by LC-MS/MS analysis; format: ADME, Microsome
Schistosoma mansoni [8] = experiment: Antiparasitic activity against Schistosoma mansoni infected in Hamster assessed as severity score at 10 uM incubated for 24 hrs; format: functional, organism-based

Cc1c(-c2cnc(N3CCCNCC3)nc2)ccc2c(Nc3cnccn3)ccnc12
solubility [1]: 465 µM (≈ 192 µg/mL) | CC50 at 48 h [2]: > 3.7 µM | Activity (Schistosoma mansoni [3]): inactive | Activity (Schistosoma mansoni [4]): inactive | Activity (Schistosoma mansoni [5]): Active | PPB [6]: 76% | intrinsic clearance [7]: 41 µL/min/mg | Activity (Schistosoma mansoni [8]): Active
